From publication PMC7911220, “Monoterpenoids from the Fruits of Amomum tsao-ko Have Inhibitory Effects on Nitric Oxide Production” (Plants, 2021)
Like-named read-outs stand apart in the source and are kept apart here.

Tests used:
[1] = tested on: LPS-induced NO production in RAW 264.7 cells; experiment: LPS-induced NO production, Griess reaction assay; assay type: cell-based, mouse; settings: read-out: IC50, inhibition of LPS-induced NO production
Protocol: (§1) To obtain plant-derived inhibitors of NO as potential lead compounds for treating inflammation disorders, monoterpene constituents 1–6 isolated from the fruits of A. tsao-ko were assayed to determine their inhibitory activities on LPS-induced NO production in murine macrophage RAW 264.7 cells via the Griess reaction assay, as described previously.
(§2) Mouse RAW264.7 macrophage cells (TIB-71) were maintained in Dulbecco’s modified Eagle medium (DMEM) supplemented with 10% fetal bovine serum (FBS), 100 U/mL penicillin, and 0.1 mg/mL streptomycin in a humidified incubator with 5% CO2 at 37 °C.
(§3) The Griess reaction was performed to measure the concentration of nitrite in the medium as an indicator of NO production. RAW264.7 macrophage cells were cultured in a 96-well plate after seeding at a density of 4 × 10^5 cells/well for 24 h in DMEM supplemented with 10% FBS, and stimulated with or without LPS (1 μg/mL, Sigma Aldrich, St. Louis, MO, USA) in the presence or absence of the compounds. After 24 h of incubation at 37 °C, 5% CO2, the cell supernatant was reacted with equal volumes of Griess reagent solutions to determine nitrite production. Absorbance was measured with a microplate reader (Molecular Devices, Sanjose, CA, USA) at 540 nm. Cell viability was confirmed via MTT (Duchefa Biochemie, Haarlem, The Netherlands) assay. The supernatant was removed and medium containing MTT solution (5 mg/mL in phosphate-buffered saline) was added to each well and incubated for 2 h. The medium was removed, and 100 μL of dimethyl sulfoxide (Duchefa Biochemie, Haarlem, The Netherlands) was added to each well to dissolve the purple formazan product to obtain a colored solution. Absorbance was measured at 540 nm with a microplate reader.

[2] = tested on: RAW264.7 macrophage cells; experiment: MTT assay for cell viability; settings: RAW 264.7 cells, LPS-stimulated
Protocol: as §1, §2, §3

IL-6 mRNA = experiment: RT-PCR of IL-6 mRNA in LPS-stimulated RAW264.7 cells; assay type: cell-based, mouse; settings: 10, 50, 100 μM for 1 h, then LPS 1 μg/mL 24 h, normalized to GAPDH
Protocol: (§4) Figure 2 Effects of (1R,4S,6S)-1,6-dihydroxy-2-menthene (compound 4) on iNOS protein and pro-inflammatory cytokine mRNA expression in LPS-stimulated RAW264.7 cells. RAW264.7 cells were pretreated with different concentrations (10, 50, 100 μM) of compound 4 for 1 h, and then stimulated with 1 µg/mL LPS for 24 h. (A,B) Western blot analysis of iNOS expression in cells treated with compound 4 (10, 50, 100 μM). β-Actin was used as a loading control. (C,D) Levels of iNOS, IL-1β, and IL-6 mRNAs were determined via RT-PCR. RT-PCR data results were expressed as the fold of changes of the target gene (iNOS, IL-1β, and IL-6) and normalized to the GAPDH. Values represent the mean ± SD of three independent experiments. […]
(§5) Next, we confirmed the effect of compound 4 on the expression of inflammatory factors, i.e., iNOS, IL-1β, and IL-6 in LPS-stimulated RAW264.7 cells. […] We measured the levels of the relevant mRNAs via reverse transcription polymerase chain reaction (RT-PCR). […]
(§6) RAW264.7 cells, plated in 6-well plates (1 × 10^6 cells/well), were treated with compound 4 (10, 50, and 100 μM) for 1 h prior to LPS, and stimulated with 1 μg/mL LPS or remained unstimulated for 24 h. […] The bands of interest were quantified using the ChemiDoc XRS system and Quantity One software (Bio-Rad Laboratories, Hercules, CA, USA).

IL-1β mRNA = experiment: RT-PCR of IL-1β mRNA in LPS-stimulated RAW264.7 cells; assay type: cell-based, mouse; settings: 10, 50, 100 μM for 1 h, then LPS 1 μg/mL 24 h, normalized to GAPDH
Protocol: as §4, §5, §6

iNOS protein expression = experiment: Western blot analysis of iNOS protein expression in LPS-stimulated RAW264.7 cells; assay type: cell-based, mouse; settings: pretreatment 10, 50, 100 μM for 1 h, then LPS 1 μg/mL 24 h
Description: L-Arginine-derived NO is an intracellular signaling molecule formed in mammalian cells by different three isoforms of nitric oxide synthase (NOS). The isozymes are referred to as neuronal NOS (nNOS or NOS I), inducible NOS (iNOS or NOS II), and an endothelial NOS (eNOS or NOS III). Excessive generation of NO by iNOS is seen in inflammatory diseases such as autoimmune and chronic inflammatory disorders. To examine the mechanism of NO inhibition by active compound 4, we evaluated iNOS protein expression via western blotting.
Figure 2 Effects of (1R,4S,6S)-1,6-dihydroxy-2-menthene (compound 4) on iNOS protein and pro-inflammatory cytokine mRNA expression in LPS-stimulated RAW264.7 cells. […] (C,D) Levels of iNOS, IL-1β, and IL-6 mRNAs were determined via RT-PCR. RT-PCR data results were expressed as the fold of changes of the target gene (iNOS, IL-1β, and IL-6) and normalized to the GAPDH. […]
RAW264.7 cells, plated in 6-well plates (1 × 10^6 cells/well), were treated with compound 4 (10, 50, and 100 μM). […] Protein expression was analyzed via immunoblotting with antibodies against anti-iNOS (cat. no. ab3523; dilution, 1:500, Abcam, Cambridge, UK) and β-actin (cat. no. 5125; dilution, 1:1000, Cell Signaling Technology, Danvers, MA, USA). […] The bands of interest were quantified using the imageJ software.

iNOS mRNA = experiment: RT-PCR of iNOS mRNA in LPS-stimulated RAW264.7 cells; assay type: cell-based, mouse; settings: 10, 50, 100 μM for 1 h, then LPS 1 μg/mL 24 h, normalized to GAPDH
Protocol: as §4, §5, §6

[3] = Mus musculus, RAW264.7, RAW 264.7 cells, LPS 1 μg/mL, 24 h, Griess reagent

| Compound | MTT (cell viability) [2] [µM] | IC50 [1, 3] [µM] | other results |
| --- | --- | --- | --- |
| O=CC1=CC[C@@H](O)[C@H]2CCC[C@@H]12 [Compound 1, tsaokoin] | >100 | – | IC50 ([1]; Mus musculus, RAW264.7, 24 h): > 100 µM |
| CC1=C[C@@H](O)[C@H](C(C)C)C[C@H]1O [Compound 2, (3S,4S,6R)-3,6-dihydroxy-1-menthene] | >100 | > 100 | – |
| C=C(C)[C@H]1CC[C@@](C)(O)C[C@@H]1O [Compound 3, (1R,3S,4R)-3-hydroxy isopulegol] | >100 | > 100 | – |
| CC(C)[C@H]1C=C[C@@](C)(O)[C@@H](O)C1 [Compound 4, (1R,4S,6S)-1,6-dihydroxy-2-menthene] | >100 | 82.5 | IL-6 mRNA level (IL-6 mRNA): reduced; IL-1β mRNA level (IL-1β mRNA): reduced; iNOS protein expression (iNOS protein expression): significantly and dose-dependently inhibited iNOS expression; iNOS mRNA expression (iNOS mRNA): decreased the iNOS expression at the mRNA level, in a dose-dependent manner |
| CC(=CCO)CCCC(C)CO (stereo not drawn) [Compound 5, 3,7-dimethyl-2-octene-1,8-diol] | >100 | > 100 | – |
| C/C(C=O)=C\CC/C(C)=C/CO [Compound 6, 8-oxogeraniol] | >100 | > 100 | – |
| CC(=O)O.CNC(=N)NCCC[C@H](N)C(=O)O [NG-methyl-L-arginine acetate, reference compound] | >100 | – | IC50 ([1]; RAW 264.7 cells, LPS 1 μg/mL, 24 h, Griess reagent): 34.2 µM |
